Measurements reported in publication PMC9512246, “GAPDH mediates drug resistance and metabolism in Plasmodium falciparum malaria parasites” (PLoS Pathogens, 2022).
Several values for one entry are separate records, joined by “and”; a condition that tells them apart may be missing. Equal values may be shown once.

Experiments:
[1] = target: T1, glyceraldehyde 3-phosphate dehydrogenase (PfGAPDH, wild-type) (Plasmodium falciparum, UniProt Q8IKK7); experiment: Michaelis-Menten kinetics of purified enzyme (Abs340, NADH formation); format: biochemical
T1 construct: gene PF3D7_1462800; recombinant PfGAPDH, N-terminal 6x-His tag, N-term and C-term modifications for improved solubility

[2] = target: T2, glyceraldehyde 3-phosphate dehydrogenase (PfGAPDH I209T) (Plasmodium falciparum, UniProt Q8IKK7, I209T); experiment: heme titration by absorption spectroscopy (purified protein); format: binding
T2 construct: gene PF3D7_1462800; recombinant PfGAPDH, N-terminal 6x-His tag, N-term and C-term modifications for improved solubility

[3] = target: T1, glyceraldehyde 3-phosphate dehydrogenase (PfGAPDH, wild-type); experiment: heme titration by absorption spectroscopy (purified protein); enzyme inhibition also measured, EC50 =[…]; format: binding
[4] = target: Plasmodium falciparum glyceraldehyde 3-phosphate dehydrogenase I209T variant (recombinant) (Plasmodium falciparum) (UniProt Q8IKK7); experiment: SEC; analytical size exclusion chromatography; 1mg of purified protein in 1mL of FPLC buffer (100mM Tris-HCl pH 7.5, 1mM MgCl2, 1mM DTT, 10% w/v glycerol); all proteins prepped the same day and dialyzed in the same buffer the night before at 4°C
[5] = target: Plasmodium falciparum glyceraldehyde 3-phosphate dehydrogenase V238A variant (recombinant) (Plasmodium falciparum) (UniProt Q8IKK7); experiment: as above
[6] = target: Plasmodium falciparum glyceraldehyde 3-phosphate dehydrogenase, wild type (recombinant) (Plasmodium falciparum) (UniProt Q8IKK7); experiment: as above

O=C[C@H](O)COP(=O)(O)O [D-glyceraldehyde 3-phosphate]
Michaelis-Menten kinetics of purified enzyme (Abs340, NADH formation) [1]: FSM-resistant and wild-type enzymes shared Michaelis-Menten constants for all three substrates NAD+, GAP, and Pi

NC(=O)c1ccc[n+]([C@@H]2O[C@H](COP(=O)([O-])OP(=O)(O)OC[C@H]3O[C@@H](n4cnc5c(N)ncnc54)[C@H](O)[C@@H]3O)[C@@H](O)[C@H]2O)c1 [NAD+]
Michaelis-Menten kinetics of purified enzyme (Abs340, NADH formation) [1]: FSM-resistant and wild-type enzymes shared Michaelis-Menten constants for all three substrates NAD+, GAP, and Pi

C=CC1=C(C)C2=Cc3c(C=C)c(C)c4[n]3[Fe][n]3c(c(C)c(CCC(=O)O)c3=CC3=NC(=C4)C(C)=C3CCC(=O)O)=CC1=N2 [heme]
Kd [2]: 1.84 µM
Kd [3]: 0.74 µM

Plasmodium falciparum glyceraldehyde 3-phosphate dehydrogenase I209T variant (recombinant) (from UniProt Q8IKK7 4-335) (enzyme)
stoichiometry N [4]: 4 and 2

Plasmodium falciparum glyceraldehyde 3-phosphate dehydrogenase V238A variant (recombinant) (from UniProt Q8IKK7 4-335) (enzyme)
stoichiometry N [5]: 4 and 2

Plasmodium falciparum glyceraldehyde 3-phosphate dehydrogenase, wild type (recombinant) (from UniProt Q8IKK7 4-335) (enzyme)
stoichiometry N [6]: 4
